ChEMBL document CHEMBL4219208, “5'-Hydroxy-5'-homoaristeromycin: Synthesis and antiviral properties” (Bioorg Med Chem Lett, 2018)
Activity calls are given as the source filed them.

Assays:
Human alphaherpesvirus 1 = test: Antiviral activity against Herpes simplex virus 1 E-377 infected in HFF; assay type: functional, organism-based
[1] = Cytotoxicity against human Huh-Luc-Neo cells assessed as reduction in cell viability; assay type: cell-based
Yellow fever virus = test: Antiviral activity against Yellow fever virus 17D infected in African green monkey Vero cells; assay type: functional, organism-based
SARS-CoV = test: Antiviral activity against SARS coronavirus Toronto-2 infected in African green monkey Vero E6 cells; assay type: functional, organism-based; conditions: Severe acute respiratory syndrome-related coronavirus, Vero C1008
Hepatitis B virus = test: Antiviral activity against Hepatitis B virus ayw infected in human HepG2.2.15 cells; assay type: functional, organism-based, Hepatitis B virus subtype ayw
MDCK = test: Cytotoxicity against MDCK cells assessed as reduction in cell viability; assay type: cell-based, Canis lupus familiaris; conditions: dog
Hepatitis C virus = test: Antiviral activity against Hepatitis C virus Con1 infected in human Huh-Luc-Neo cells; assay type: functional, organism-based; conditions: Hepacivirus hominis; isolate Con1
Influenza A virus = test: Antiviral activity against Influenza A virus (A/California/07/2009(H1N1)) infected in MDCK cells; assay type: functional, organism-based
Human orthopneumovirus = test: Antiviral activity against Respiratory syncytial virus A infected in human Hep2 cells; assay type: functional, organism-based; conditions: type A
Vero C1008 = test: Cytotoxicity against African green monkey Vero E6 cells assessed as reduction in cell viability; assay type: cell-based; conditions: chlorocebus sabaeus
dengue virus type 2 = test: Antiviral activity against Dengue virus type 2 New guinea infected in African green monkey Vero 76 cells; assay type: functional, organism-based
[2] = Cytotoxicity against human HepG2.2.15 cells assessed as reduction in cell viability; assay type: cell-based, HepG2 2.2.15
[3] = system: Venezuelan equine encephalitis virus; test: Antiviral activity against Venezuelan equine encephalitis virus TC-83 infected in African green monkey Vero cells; assay type: functional, organism-based
HEp-2 = test: Cytotoxicity against human Hep2 cells assessed as reduction in cell viability; assay type: cell-based
Poliovirus 1 = test: Antiviral activity against Polio virus type 1 infected in monkey LLC-MK2 clone 7.1 cells; assay type: functional, organism-based
Rift Valley fever virus = test: Antiviral activity against Rift Valley fever virus MP-12 infected in African green monkey Vero 76 cells; assay type: functional, organism-based
Vero = test: Cytotoxicity against African green monkey Vero cells assessed as reduction in cell viability; assay type: cell-based; conditions: chlorocebus sabaeus
West Nile virus = test: Antiviral activity against West Nile virus KERN 515/WN02 infected in MDCK cells; assay type: functional, organism-based
Vero 76 = test: Cytotoxicity against African green monkey Vero 76 cells assessed as reduction in cell viability; assay type: cell-based; conditions: chlorocebus sabaeus
Human alphaherpesvirus 2 = test: Antiviral activity against Herpes simplex virus 2 G infected in HFF; assay type: functional, organism-based
LLC-MK2 = test: Cytotoxicity against monkey LLC-MK2 clone 7.1 cells assessed as reduction in cell viability; assay type: cell-based, Macaca mulatta; conditions: rhesus monkey
Vaccinia virus = test: Antiviral activity against Vaccinia virus Copenhagen infected in HFF cells; assay type: functional, organism-based; conditions: Orthopoxvirus vaccinia
[4] = Cytotoxicity against HFF assessed as reduction in cell viability; assay type: cell-based; conditions: human, HFF cells
Human betaherpesvirus 5 = test: Antiviral activity against Human cytomegalovirus AD169 infected in HFF; assay type: functional, organism-based; conditions: Human betaherpesvirus 5, AD169, HFF

Nc1ncnc2c1ncn2[C@@H]1C[C@H]([C@H](O)CO)[C@@H](O)[C@H]1O
Non-Toxic: Activity [1] | Activity (MDCK) | Activity (Vero C1008) | Activity (HEp-2) | Activity (Vero) | Activity (Vero 76) | Activity (LLC-MK2)
inactive: Activity (Human alphaherpesvirus 1) | Activity (Yellow fever virus) | Activity (SARS-CoV) | Activity (Hepatitis C virus) | Activity (Influenza A virus) | Activity (Human orthopneumovirus) | Activity (dengue virus type 2) | Activity [3] | Activity (Poliovirus 1) | Activity (Rift Valley fever virus) | Activity (West Nile virus) | Activity (Human alphaherpesvirus 2) | Activity (Vaccinia virus)
> 100 µM: CC50 [2]
7.1 µM: EC50 (Hepatitis B virus)

Nc1ncnc2c1ncn2[C@@H]1C[C@H]([C@@H](O)CO)[C@@H](O)[C@H]1O
> 300 µM: CC50 [4]
Non-Toxic: Activity [1] | Activity (MDCK) | Activity (Vero C1008) | Activity (HEp-2) | Activity (Vero) | Activity (Vero 76) | Activity (LLC-MK2)
> 100 µM: CC50 [2]
inactive: Activity (Human alphaherpesvirus 1) | Activity (SARS-CoV) | Activity (Hepatitis C virus) | Activity (Influenza A virus) | Activity (Human orthopneumovirus) | Activity (dengue virus type 2) | Activity [3] | Activity (Poliovirus 1) | Activity (Rift Valley fever virus) | Activity (West Nile virus) | Activity (Human alphaherpesvirus 2) | Activity (Vaccinia virus)
0.72 µM: EC50 (Human betaherpesvirus 5)
7.4 µM: EC50 (Hepatitis B virus)
